The values that follow are results of earlier work, collected in patent US20240423899A1, “LONGEVITY MOISTURIZING CREAM” (Wellbeam Consumer Health Intermediate, LLC, priority 2023, published 2024).

This data set deals with skin. To be noted: topical application.

For `C=C[C@@](C)(/C=C/c1ccc(O)cc1)CCC=C(C)C` [bakuchiol], the “irritating effect on the skin” value is recorded as “no irritating effect”; the “lines and wrinkles, pigmentation, elasticity, firmness, and overall reduction in photo-damage” value was “significant improvement”.
